Measured values reported in patent publication US20100297229A1, “TAPENTADOL COMPOSITIONS” (Nectid Inc., priority 2007, published 2010).
Structures can show the parent of a compound that is named as a salt.

Experiments:
[1] = test system: Chronic non-cancer pain (CNCP); assay: Study III: clinical trial of tapentadol and tramadol combination, VAS pain score; assay type: in vivo, human; conditions: mean ± SD, VAS 0-100 mm, N = 10
Procedure: The following general methods were used in all of the studies;
Randomization: Randomization was performed with computer-generated random numbers in blocks of 10. Randomization codes of the monotherapy or combination therapy treatments were placed in sequentially numbered, opaque, sealed envelopes in the biopsy center. When a patient was recruited and consented, the next numbered envelope was opened by the operator, who had no knowledge of the randomization code before the treatment
Scale and Measurement: Pain was assessed using a visual analogue scale (VAS) graded from 0-100 mm. Pain scoring was performed every visit Week 1, Week 2, Week 3, Week 4, Week 5 and Week 6. The patients were taught with a standard method by the physician how to use a VAS scoring from 0 to 100 mm to grade the intensity of pain experienced during the treatment. On that scale, the left endpoint, 0, was defined as no pain and the right endpoint 100, as the worst pain the patient could imagine. There were no further marks on the line. The intensity of pain was indicated by the distance in millimeters from the left end. Patients were asked to grade the pain intensity after the administration of drugs and the pain was assessed by the patient in their weekly pain score diary. The doctors who prescribed the medicines obtained all the VAS forms for that specific patient.
Statistical Analysis: Data are expressed as means±SD. Differences in VAS were analyzed with use of the unpaired Student t test and differences in pain score reductions between the two groups were analyzed with use of the Mann-Whitney U test for the median difference. Similar statistical tests were used for between group comparisons of other outcome variables as appropriate. A two tailed P value of less than. […] SAS software was used for the statistical analysis.
The Fixed dose combination of slow release tapentadol hydrochloride and tramadol hydrochloride was tested in a human clinical trial. In this study III, 40 patients were used in a clinical trial were suffering from Chronic non-cancer pain (CNCP), defined as pain for longer than 6 months, including neuropathic pain, osteoarthritis, rheumatoid arthritis, fibromyalgia, and back and musculoskeletal pain were included in the clinical trial. No effort was made to segregate the patients based on the type of pain nor did we evaluate the extent of pain relief on the basis of pain type. Those patients with migraines, dental pain, abdominal pains (from chronic pancreatitis, kidney stones, etc.) and ischemic pain from vascular disease were excluded because they are usually not classified as CNCP. Patients with history of addiction (alcohol or drugs) were excluded from the trials.

[2] = test system: pain intensity associated with knee osteoarthritis; assay: Study I: 6-week clinical trial of tapentadol and NSAID combination, Arthritis Pain Intensity VAS; assay type: in vivo, human; conditions: primary endpoint; average of Weeks 1-6; knee osteoarthritis patients; FIG. 2

SMILES | VAS Pain Score ([1]; time 0 hours) | VAS Pain Score ([1]; time 3 hours) | VAS Pain Score ([1]; time 6 hours) | VAS Pain Score ([1]; time 9 hours) | VAS Pain Score ([1]; time 12 hours) | VAS Pain Score ([1]; time 15 hours) | VAS Pain Score ([1]; time 18 hours) | VAS Pain Score ([1]; time 21 hours) | VAS Pain Score ([1]; time 24 hours) | LS Mean change from baseline over 6 weeks in the arthritis pain intensity VAS [2] [%]
COc1cccc([C@]2(O)CCCC[C@H]2CN(C)C)c1 (racemic) [Tramadol, (±) cis-2-[(dimethylamino)methyl]-1-(3-methoxyphenyl)cyclo-hexanol hydrochloride] | 32.4 ± 21.2 | 23.1 ± 20.1 | 18.8 ± 20.6 | 14.9 ± 17.2 | 13.1 ± 21.2 | 13.9 ± 19.2 | 15.4 ± 21.3 | 14.5 ± 19.2 | 13.9 ± 19.2 | 
CC[C@@H](c1cccc(O)c1)[C@@H](C)CN(C)C [Tapentadol, 3-(3-Dimethylamino-1-ethyl-2-methyl-propyl)-phenol] | 33.7 ± 18.2 | 24.8 ± 19.1 | 21.1 ± 22.9 | 14.2 ± 23.1 | 11.2 ± 20.9 | 11.0 ± 16.2 | 9.5 ± 17.8 | 10.4 ± 16.2 | 11.6 ± 16.2 | 38
COc1ccc2cc([C@H](C)C(=O)O)ccc2c1 [Naproxen, (+)-(S)-2-(6-methoxy-naphthalen-2-yl) propanoic acid] |  |  |  |  |  |  |  |  |  | 28
